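Briefly, cells in 96-well plates were exposed to five compound concentrations for 48 h, and endpoints were estimated by linear interpolation. GI50: concentration for 50% inhibition of growth. TGI: total growth inhibition.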
How the values were obtained:
Experiment in all cases: inhibition of tumour cell growth, NCI panel, 48 h
HOP-62 NSCLC = test system: HOP-62 NSCLC
786-0 renal = test system: 786-0 renal
HCT-116 colon = test system: HCT-116 colon
T-47D breast = test system: T-47D breast
OVCAR-5 ovarian = test system: OVCAR-5 ovarian
RXF 393 renal = test system: RXF 393 renal
BT-549 breast = test system: BT-549 breast
NCI-H522 lung = test system: NCI-H522 lung
EKVX NSCLC = test system: EKVX NSCLC
MDA-MB-435 = test system: MDA-MB-435
SW-620 colon = test system: SW-620 colon
SK-MEL-5 melanoma = test system: SK-MEL-5 melanoma
LOX IMVI melanoma = test system: LOX IMVI melanoma
HCC-2998 colon = test system: HCC-2998 colon
CCRF-CEM leukemia = test system: CCRF-CEM leukemia
IGROV1 ovarian = test system: IGROV1 ovarian
PC-3 prostate = test system: PC-3 prostate
NCI-H226 lung = test system: NCI-H226 lung
SK-MEL-28 melanoma = test system: SK-MEL-28 melanoma
A498 renal = test system: A498 renal
MALME-3M melanoma = test system: MALME-3M melanoma
HS 578T breast = test system: HS 578T breast
TK-10 renal = test system: TK-10 renal
UACC-62 melanoma = test system: UACC-62 melanoma
NCI-H23 lung = test system: NCI-H23 lung
K-562 leukemia = test system: K-562 leukemia
HT29 colon = test system: HT29 colon
SR leukemia = test system: SR leukemia
MOLT-4 leukemia = test system: MOLT-4 leukemia
OVCAR-4 ovarian = test system: OVCAR-4 ovarian
CAKI-1 renal = test system: CAKI-1 renal
NCI/ADR-RES ovarian = test system: NCI/ADR-RES ovarian
KM12 colon = test system: KM12 colon
M14 melanoma = test system: M14 melanoma
SK-OV-3 ovarian = test system: SK-OV-3 ovarian
U251 CNS = test system: U251 CNS
A549 NSCLC = test system: A549 NSCLC
MCF7 breast = test system: MCF7 breast
SNB-19 CNS = test system: SNB-19 CNS
SK-MEL-2 melanoma = test system: SK-MEL-2 melanoma
SF-268 CNS = test system: SF-268 CNS
SF-539 CNS = test system: SF-539 CNS
DU-145 prostate = test system: DU-145 prostate
MDA-MB-231 breast = test system: MDA-MB-231 breast
SNB-75 CNS = test system: SNB-75 CNS
NCI-H460 lung = test system: NCI-H460 lung
HOP-92 NSCLC = test system: HOP-92 NSCLC
SN12C renal = test system: SN12C renal
UO-31 renal = test system: UO-31 renal
ACHN renal = test system: ACHN renal
SF-295 CNS = test system: SF-295 CNS
HCT-15 colon = test system: HCT-15 colon
UACC-257 melanoma = test system: UACC-257 melanoma
HL-60(TB) leukemia = test system: HL-60(TB) leukemia
RPMI-8226 leukemia = test system: RPMI-8226 leukemia

Compound COc1ccc(N(C)c2cc(C#N)nc3ccccc23)cc1N has a GI50 (HOP-62 NSCLC) of less than 10 nM, a TGI (HOP-62 NSCLC) greater than 100000 nM and a GI50 (786-0 renal) of less than 10 nM. It also gave a TGI (786-0 renal) greater than 100000 nM, a GI50 (HCT-116 colon) of less than 10 nM and a TGI (HCT-116 colon) of 1530 nM. For the same compound, the GI50 (T-47D breast) was 7610 nM, the TGI (T-47D breast) was greater than 100000 nM and the GI50 (OVCAR-5 ovarian) was less than 10 nM. It also gave a TGI (OVCAR-5 ovarian) greater than 100000 nM, a GI50 (RXF 393 renal) of less than 10 nM and a TGI (RXF 393 renal) greater than 100000 nM. It also gave a GI50 (BT-549 breast) of less than 10 nM, a GI50 (NCI-H522 lung) of less than 10 nM and a TGI (NCI-H522 lung) of less than 10 nM. For the same compound, the GI50 (EKVX NSCLC) was less than 10 nM, the TGI (EKVX NSCLC) was greater than 100000 nM and the GI50 (MDA-MB-435) was less than 10 nM. For the same compound, the TGI (MDA-MB-435) was less than 10 nM, the GI50 (SW-620 colon) was less than 10 nM and the TGI (SW-620 colon) was greater than 100000 nM. For the same compound, the GI50 (SK-MEL-5 melanoma) was less than 10 nM, the TGI (SK-MEL-5 melanoma) was less than 10 nM and the GI50 (LOX IMVI melanoma) was less than 10 nM. The TGI (LOX IMVI melanoma) was greater than 64200 nM, the GI50 (HCC-2998 colon) was less than 10 nM and the TGI (HCC-2998 colon) was 131 nM. For the same compound, the GI50 (CCRF-CEM leukemia) was less than 10 nM, the TGI (CCRF-CEM leukemia) was greater than 37100 nM and the GI50 (IGROV1 ovarian) was less than 10 nM. The TGI (IGROV1 ovarian) was greater than 100000 nM, the GI50 (PC-3 prostate) was less than 10 nM and the TGI (PC-3 prostate) was greater than 100000 nM. For the same compound, the GI50 (NCI-H226 lung) was less than 10 nM, the TGI (NCI-H226 lung) was greater than 100000 nM and the TGI (SK-MEL-28 melanoma) was greater than 100000 nM. It also gave a GI50 (A498 renal) of 83400 nM, a TGI (A498 renal) greater than 100000 nM and a GI50 (MALME-3M melanoma) of less than 10 nM. The TGI (MALME-3M melanoma) was greater than 84600 nM, the GI50 (HS 578T breast) was less than 10 nM and the TGI (HS 578T breast) was greater than 100000 nM. For the same compound, the GI50 (TK-10 renal) was 19600 nM, the TGI (TK-10 renal) was greater than 100000 nM and the GI50 (UACC-62 melanoma) was less than 10 nM. For the same compound, the TGI (UACC-62 melanoma) was greater than 100000 nM, the GI50 (NCI-H23 lung) was less than 10 nM and the TGI (NCI-H23 lung) was greater than 54100 nM. For the same compound, the GI50 (K-562 leukemia) was less than 10 nM, the TGI (K-562 leukemia) was greater than 100000 nM and the GI50 (HT29 colon) was less than 10 nM. For the same compound, the TGI (HT29 colon) was less than 10 nM, the GI50 (SR leukemia) was less than 10 nM and the TGI (SR leukemia) was greater than 73900 nM. It also gave a GI50 (MOLT-4 leukemia) of less than 10 nM, a TGI (MOLT-4 leukemia) greater than 60600 nM and a GI50 (OVCAR-4 ovarian) of 3690 nM. For the same compound, the TGI (OVCAR-4 ovarian) was greater than 100000 nM, the GI50 (CAKI-1 renal) was less than 10 nM and the TGI (CAKI-1 renal) was greater than 100000 nM. The GI50 (NCI/ADR-RES ovarian) was less than 10 nM, the TGI (NCI/ADR-RES ovarian) was less than 10 nM and the GI50 (KM12 colon) was less than 10 nM. It also gave a TGI (KM12 colon) greater than 45400 nM, a GI50 (M14 melanoma) of less than 10 nM and a TGI (M14 melanoma) greater than 100000 nM. It also gave a GI50 (SK-OV-3 ovarian) of less than 18.7 nM, a TGI (SK-OV-3 ovarian) greater than 100000 nM and a GI50 (U251 CNS) of less than 10 nM. The TGI (U251 CNS) was greater than 100000 nM, the GI50 (A549 NSCLC) was less than 10 nM and the TGI (A549 NSCLC) was greater than 100000 nM. For the same compound, the GI50 (MCF7 breast) was less than 10 nM, the TGI (MCF7 breast) was greater than 100000 nM and the GI50 (SNB-19 CNS) was less than 10 nM. It also gave a TGI (SNB-19 CNS) greater than 100000 nM, a GI50 (SK-MEL-2 melanoma) of less than 10 nM and a GI50 (SF-268 CNS) of less than 10 nM. For the same compound, the TGI (SF-268 CNS) was greater than 100000 nM, the GI50 (SF-539 CNS) was less than 10 nM and the TGI (SF-539 CNS) was less than 10 nM. For the same compound, the GI50 (DU-145 prostate) was less than 10 nM, the TGI (DU-145 prostate) was greater than 100000 nM and the GI50 (MDA-MB-231 breast) was less than 10 nM. The TGI (MDA-MB-231 breast) was less than 10 nM, the GI50 (SNB-75 CNS) was less than 10 nM and the TGI (SNB-75 CNS) was greater than 67700 nM. For the same compound, the GI50 (NCI-H460 lung) was less than 10 nM, the TGI (NCI-H460 lung) was 4560 nM and the TGI (HOP-92 NSCLC) was greater than 76200 nM. The GI50 (SN12C renal) was less than 10 nM, the TGI (SN12C renal) was greater than 34300 nM and the GI50 (UO-31 renal) was less than 10 nM. The TGI (UO-31 renal) was greater than 100000 nM, the GI50 (ACHN renal) was less than 10 nM and the TGI (ACHN renal) was greater than 100000 nM. For the same compound, the GI50 (SF-295 CNS) was less than 10 nM, the TGI (SF-295 CNS) was greater than 100000 nM and the GI50 (HCT-15 colon) was less than 10 nM. For the same compound, the GI50 (UACC-257 melanoma) was 8620 nM, the TGI (UACC-257 melanoma) was greater than 100000 nM and the GI50 (HL-60(TB) leukemia) was less than 10 nM. For the same compound, the TGI (HL-60(TB) leukemia) was less than 10 nM, the GI50 (RPMI-8226 leukemia) was less than 10 nM and the TGI (RPMI-8226 leukemia) was greater than 54100 nM.
